Measurements reported in patent US5741671A, “Isolation cloning and expression of transmembrane water channel aquaporin 1(AQP1)” (The Johns Hopkins University, priority 1995, dated 1998).

Columns and labels:
human RBC = details: cited from earlier work
[1] = Stopped-flow osmotic water permeability of control liposomes; type: biochemical; details: mercurial reagent 1 mM
Experimental: Purified AQP1 was stored overnight at 0° C. or frozen for several days at -80° C. prior to reconstitution. Reconstitution into proteoliposomes was carried out in a final volume of 1 ml containing 60-90 μg of purified AQP1 protein in chromatography buffer, 9 mg of bath-sonicated E. coli phospholipid, 1.25% (w/v) octyl glucoside, and 50 mM Tris-HCl (pH 7.5). The mixture was briefly blended on a vortex mixer and incubated for 20 minutes on ice. […] Protein and phospholipid were measured as described by Ambudkar & Maloney (J. Biol. Chem., 1986, 261:10079-10086).
(§1) Permeability measurements. Membrane permeability measurements (Pf) were measured by exposing AQP1 proteoliposomes or control liposomes to an osmotic gradient by rapid mixing with an equal volume of another solution containing buffer A plus sufficient sucrose to increase osmolality in the mixed solutions to a value 120% of that in the original solution. This was performed with a stopped-flow fluorometer (SF.17MV, Applied Photophysics, Leatherhead, U.K.) with a measured dead time of 0.7 ms. […] Extravesicular carboxyfluorescein fluorescence was completely quenched using anti-fluorescein antibody (Harris et al., 1990, Am. J. Physiol. 259:F366-F371). […]

AQP1 = target: T1, AQP1 (Homo sapiens, UniProt P29972); test: Stopped-flow osmotic water permeability of AQP1 proteoliposomes; type: biochemical; details: CHIP28 proteoliposomes
T1 construct: Human erythrocytes were obtained from blood-bank units stored up to 5 weeks; from tissue; host or cells: human erythrocytes (blood-bank units; small-scale preparations from freshly drawn whole blood)
T1 sequence (P29972 2-269 limits assumed): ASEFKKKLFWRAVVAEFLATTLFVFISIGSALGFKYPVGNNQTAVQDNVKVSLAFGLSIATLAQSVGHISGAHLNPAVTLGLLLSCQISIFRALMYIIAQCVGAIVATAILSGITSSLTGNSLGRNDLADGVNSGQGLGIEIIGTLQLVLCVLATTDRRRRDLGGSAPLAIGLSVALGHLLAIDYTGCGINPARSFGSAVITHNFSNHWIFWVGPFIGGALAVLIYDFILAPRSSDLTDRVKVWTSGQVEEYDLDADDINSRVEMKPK
Excerpt: Preparation AQP1-containing proteoliposomes. Crude Escherichia coli lipid was obtained from Avanti Polar Lipids, Inc., and neutral lipid was removed by acetone/ether wash (Ambudkar & Maloney, 1986, Methods. Enzymol. 125:558-563). The purified E. coli bulk phospholipid is composed of phosphalidylethanolamine (70%), phosphatidylglycerol (15%), and cardiolipin (15%) (Chen & Wilson, […], Proc. Natl. Acad. Sci. USA 83:2652-2656). E. coli bulk phospholipid was employed since it has previously been used for functional reconstitution of several transport proteins including the glucose transporter of RBCs (Maloney & Ambudkar, 1989, Arch. Biochem. Biophys. 269:1-10; Chen et al., 1986, Proc. Natl. Acad. Sci. USA 83:2652-2656).
Highly purified AQP1 protein was incorporated into proteoliposomes by detergent dilution; control liposomes were formed in an identical manner without AQP1 protein.
Purified AQP1 was stored overnight at 0° C. or frozen for several days at -80° C. prior to reconstitution. Reconstitution into proteoliposomes was carried out in a final volume of 1 ml containing 60-90 μg of purified AQP1 protein in chromatography buffer, 9 mg of bath-sonicated E. coli phospholipid, 1.25% (w/v) octyl glucoside, and 50 mM Tris-HCl (pH 7.5). The mixture was briefly blended on a vortex mixer and incubated for 20 minutes on ice. Proteoliposomes (or liposomes prepared without protein) were formed at room temperature by rapidly injecting the mixture into 25 ml of buffer A [50 mM MOPS, pH 7.5, 150 mM N-methyl-D-glucamine (NMDG) chloride also containing 10-15 mM carboxyfluorescein, 1 mM dithiothreitol, and 0.5 mM PMSF]. For the measurement of proton permeability, proteoliposomes and liposomes were loaded with buffer B (5 mM MOPS, pH 7.5, 150 mM KCl, 0.5 mM carboxyfluorescein, 1 mM dithiothreitol, and 0.5 mM PMSF). The suspension was incubated for 20 minutes at room temperature. Proteoliposomes or liposomes were collected by centrifugation for 1 hour at 123000×g in a Beckman Type 42.1 rotor at 4° C. The pellet was resuspended in 8 ml of buffer A or B and then centrifuged for 1 hour at 152000×g in a Beckman Type 50 Ti rotor. Proteoliposomes or liposomes were resuspended in 300 μl of buffer A or B and stored at 4° C. for 16-24 hours. Typically 50% (54±6%, n=5) of the AQP1 protein and 70% of the phospholipid were recovered in proteoliposomes. The lipid to protein ratio was in the range of 120:1 to 219:1. […] Protein and phospholipid were measured as described by Ambudkar & Maloney (J. Biol. Chem., 1986, 261:10079-10086).
as §1, with “259:F366-F371). Within the range of osmolalities used in these experiments, the vesicles acted as perfect osmometers, and relative volume (absolute volume divided by initial volume) was linearly related to relative fluorescence (absolute fluorescence divided by initial fluorescence).” for “259:F366-F371).”

CHIP28 water channel = target: T2, CHIP28 water channel (Homo sapiens, UniProt P29972); test: Urea permeability of CHIP28 proteoliposomes; type: biochemical; details: internal urea 374 mM, external urea 187 mM
T2 construct: Human erythrocytes were obtained from blood-bank units stored up to 5 weeks; from tissue; host or cells: human erythrocytes (blood-bank units; small-scale preparations from freshly drawn whole blood)
T2 sequence (P29972 2-269 limits assumed): T1 sequence (P29972 2-269 limits assumed)
Excerpt: The general formula defining solute exit from a vesicle is
Jurea =d(urea)/dt=Purea (SA)ΔC (2)
where Jurea is urea flux, Purea is the permeability coefficient for urea, SA is the surface area of the vesicle, and ΔC is the difference in urea concentration between the inside and outside of the vesicle, which diminishes as the system reaches equilibrium. If
Using parameters from the single-exponential curve fit to the data and the relationship between relative volume and relative fluorescence, equation 4 was solved for Purea using MathCAD.
Exclusion of urea. To determine the selectivity of the CHIP28 water channel, CHIP28-containing liposomes were loaded with urea at a level similar to the measured Km for urea transport in RBCs and were abruptly mixed with solutions of identical osmolality containing half the urea concentration. Urea permeability was determined by monitoring the relative fluorescence of entrapped carboxyfluorescein during the urea efflux. Solutions inside and outside the vesicle were of equal osmolality but differed in the concentrations of permeant and impermeant solutes (Grossman et al., 1992, Am. J. Physiol., in press). Thus, internal urea concentration was 374 mM and external urea concentration was 187 mM with the remaining osmolality balanced by 187 mM sucrose. […]

O=C(CCc1ccc(O)cc1)c1c(O)cc(O)cc1O [Phloretin]
effect on urea flux (human RBC): inhibits urea flux
effect on water flux (human RBC): without altering water flux

O=S(=O)([O-])c1cc[c]([Hg][Cl])cc1 [pCMBS, p-chloromercuribenzene sulfonate]
effect on the Pf of control liposomes [1]: Neither pCMBS nor HgCl2 had any effect
Pf after mercurial treatment (AQP1; 1 mM pCMBS, 25 minutes at 37° C.): 0.009±0.005 cm/s
extent of inhibition of Pf at 5 and 10 minutes (AQP1; 1 mM, 37° C.): partial

B1: AQP1: Mr 28,000 transmembrane water channel protein of human erythrocytes, 269 amino acids (protein)
chain: T1 sequence (P29972 2-269 limits assumed)
urea permeability versus control liposomes (CHIP28 water channel): did not augment urea permeability
